25 molecules from patent US10323041B2, “Bicyclic derivatives, a process for their preparation and pharmaceutical compositions containing them” (LES LABORATOIRES SERVIER, priority 2015, dated 2019) can be followed below.

Chain of Mcl-1 protein (Q07820 whole entry): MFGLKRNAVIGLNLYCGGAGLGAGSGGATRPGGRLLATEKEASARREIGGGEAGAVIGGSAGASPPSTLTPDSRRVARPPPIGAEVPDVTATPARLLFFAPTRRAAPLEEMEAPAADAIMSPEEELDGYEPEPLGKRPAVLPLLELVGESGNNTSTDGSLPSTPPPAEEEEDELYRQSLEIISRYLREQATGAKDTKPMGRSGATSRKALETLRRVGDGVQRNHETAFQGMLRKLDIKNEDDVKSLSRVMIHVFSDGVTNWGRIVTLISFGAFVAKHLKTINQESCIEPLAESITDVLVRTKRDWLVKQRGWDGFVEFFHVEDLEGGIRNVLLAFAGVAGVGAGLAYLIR

In one test the target is Mcl-1 protein (Homo sapiens, UniProt Q07820). Put plainly: Inhibition of Mcl-1 by the fluorescence polarisation technique. In kind it is binding. Particulars: @ 10 μM test compound; partial inhibitors. How it is done:
The relative binding potency of each compound was determined via fluorescence Polarisation (FP). The method utilised a Fluorescein labelled ligand Fluorescein-βAla-Ahx-[A-REIGAQLRRMADDLNAQY (SEQ ID NO: 1)]-OH; mw 2,765) which binds to the Mcl-1 protein (such that corresponds to the UniProtKB® primary accession number: Q07820) leading to an increased anisotropy measured in milli-polarisation (mP) units using a reader. The addition of a compound which binds competitively to the same site as the ligand will result in a greater proportion of unbound ligand in the system indicated by a decrease in mP units.
Method 1: An 11 point serial dilution of each compound was prepared in DMSO and 2 μl transferred into flat bottomed, low binding, 384-well plate (final DMSO concentration 5%). 38 μl of buffer (10 mM 4-(2-hydroxyethyl)-1-piperazineethanesulfonic acid [HEPES], 150 mM NaCl, 0.05% Tween 20, pH 7.4), containing the Fluorescein labelled ligand (final concentration 1 nM) and Mcl-1 protein (final concentration 5 nM) was then added.
(§1) Assay plates were incubated ˜2 hours at room temperature before FP was measured on a […] Synergy2 reader (Ex. 528 nm, Em. 640 nm, Cut off 510 nm) and mP units calculated. The binding of increasing doses of test compound was expressed as a percentage reduction in mP compared to a window established between ‘5% DMSO only’ and ‘100% inhibition’ controls. 11-point dose response curves were plotted with XL-Fit software using a 4-Parameter Logistic Model (Sigmoidal Dose-Response Model) and the inhibitory concentrations that gave a 50% reduction in mP (IC50) were determined. Results obtained using Method 1 are presented in Table 1 below; IC50 of Mcl-1 inhibition obtained using Method 1 are not underlined.
Method 2: An 11 point serial dilution of each compound was prepared in DMSO and 2 μl transferred into flat bottomed, low binding, 384-well plate (final DMSO concentration 5%). 38 μl of buffer (20 mM Na2HPO4, 1 mM EDTA, 50 mM NaCl, pH 7.4), containing the Fluorescein labelled ligand (final concentration 10 nM) and Mcl-1 protein (final concentration 10 nM) was then added.
as §1, with “inhibition’ controls (50 μM unlabelled ligand).” for “inhibition’ controls.”, “Method 2” for “Method 1”, “are” for “are not”
A general note: Fluorescence polarisation rises when a labelled molecule tumbles more slowly, as on binding a larger partner.
In the case of `CCc1sc2cccc(OC(Cc3ccccc3)C(=O)O)c2c1-c1ccc(O)c(Cl)c1C` [Example 50, (2R)-2-{[(3Ra)-3-(3-chloro-4-hydroxy-2-methylphenyl)-2-ethyl-1-benzothiophen-4-yl]oxy}-3-phenylpropanoic acid], the “percentage fluorescence polarization inhibition” value is recorded as 65.85% @ 10 μM.

Turning to `COc1ccccc1C[C@@H](Oc1cccc2cc(-c3ccc(F)cc3)n(-c3ccc(OCCN4CCN(C)CC4)c(Cl)c3C)c12)C(=O)O` [Example 55], the “percentage fluorescence polarization inhibition” value came to 55.35% @ 10 μM.

The test is the same for the next values; noted with them: @ 50 μM test compound; partial inhibitors.
Turning to `CCc1c(-c2cccc(Cl)c2C)c2c(NC(Cc3ccccc3)C(=O)O)ncnc2n1C` [Example 20, N-[(5Ra)-5-(3-chloro-2-methylphenyl)-6-ethyl-7-methyl-7H-pyrrolo[2,3-d]pyrimidin-4-yl]-D-phenylalanine], the “percentage fluorescence polarization inhibition” value was determined as 64.8% @ 50 μM.

With `CCc1c(-c2cccc(Cl)c2C)c2c(NC(Cc3ccccc3)C(=O)O)ncnc2n1CC1CC1` [Example 22, N-[(5Ra)-5-(3-chloro-2-methylphenyl)-7-(cyclopropylmethyl)-6-ethyl-7H-pyrrolo[2,3-d]pyrimidin-4-yl]-D-phenylalanine], the “percentage fluorescence polarization inhibition” value is on record as 74.2% @ 50 μM.

As for `CCc1c(-c2cccc(Cl)c2C)c2c(NC(Cc3ccccc3)C(=O)O)ncnc2n1CC(F)(F)F` [Example 28, N-[(5Ra)-5-(3-chloro-2-methylphenyl)-6-ethyl-7-(2,2,2-trifluoroethyl)-7H-pyrrolo[2,3-d]pyrimidin-4-yl]-D-phenylalanine], the “percentage fluorescence polarization inhibition” value is recorded as 63.25% @ 50 μM.

As to `C=CCn1c(Br)c(-c2cccc(Cl)c2C)c2c(NC(Cc3ccccc3)C(=O)O)ncnc21` [Example 43, N-[6-bromo-(5Ra)-5-(3-chloro-2-methylphenyl)-7-(prop-2-en-1-yl)-7H-pyrrolo[2,3-d]pyrimidin-4-yl]-D-phenylalanine], the “percentage fluorescence polarization inhibition” value is 66.9% @ 50 μM.

Still in this test, the particulars now being: @ 50 μM test compound; partial inhibitors; 50 µM.
As for `CCc1c(-c2cccc(Cl)c2C)c2c(N[C@H](Cc3ccccc3)C(=O)O)ncnc2n1C(C)C` [Example 38, N-[(5Ra)-5-(3-chloro-2-methylphenyl)-6-ethyl-7-(propan-2-yl)-7H-pyrrolo[2,3-d]pyrimidin-4-yl]-D-phenylalanine], the “percentage fluorescence polarization inhibition” value worked out at 67% @ 50 μM.

For `CCc1c(-c2cccc(Cl)c2C)c2c(N[C@H](Cc3ccccc3)C(=O)O)ncnc2n1C(C)C` [Example 39, N-[(5Sa)-5-(3-chloro-2-methylphenyl)-6-ethyl-7-(propan-2-yl)-7H-pyrrolo[2,3-d]pyrimidin-4-yl]-D-phenylalanine], the “percentage fluorescence polarization inhibition” value is listed as 77.75% @ 50 μM.

Staying with this test, now noted: @ 50 μM test compound; partial inhibitors; read-out: percentage fluorescence polarization inhibition.
With `Cc1c(Cl)cccc1-c1c2n(c3ncnc(N[C@H](Cc4ccccc4)C(=O)O)c13)CCC2` [Example 46, N-[5-(3-chloro-2-methylphenyl)-7,8-dihydro-6H-pyrimido[5,4-b]pyrrolizin-4-yl]-D-phenylalanine], the inhibition (as a rule, the share of the control response that was lost under treatment) at 50 µM was determined as 71%.

Staying with this test, now noted: Method 1 (not underlined) or Method 2 (underlined); underlining not visible; first value where cell prints two; read-out: IC50 (M) Mcl-1 FP.
Take `Cc1c(Cl)cccc1-c1c2n(c3ncnc(NC(Cc4ccccc4)C(=O)O)c13)CCCC2` (single isomer, unassigned) [Example 48, N-[(5Sa)-5-(3-chloro-2-methylphenyl)-6,7,8,9-tetrahydropyrimido[5,4-b]indolizin-4-yl]-D-phenylalanine]: the IC50 (commonly the point on the concentration scale where inhibition reaches its midpoint) is 5.9e-06 M.

In the case of `COc1ccccc1-c1nccc(COc2ccccc2CC(Oc2cccc3sc(-c4ccc(F)cc4)c(-c4ccc(OCCN5CCN(C)CC5)c(Cl)c4C)c23)C(=O)O)n1` (single isomer, unassigned) [Example 52], the IC50 was found to be 1.6e-06 M.

Turning to `COc1ccccc1-c1nccc(COc2ccccc2CC(Oc2cccc3oc(-c4ccc(F)cc4)c(-c4ccc(OCCN5CCN(C)CC5)c(Cl)c4C)c23)C(=O)O)n1` (single isomer, unassigned) [Example 63], the IC50 is 1.7e-07 M.

For the molecule `COc1ccccc1-c1nccc(COc2ccccc2CC(Oc2cccc3c2c(-c2ccc(OCCN4CCN(C)CC4)c(Cl)c2C)c(-c2ccc(F)cc2)n3C)C(=O)O)n1` (single isomer, unassigned) [Example 68], the IC50 was determined as 1.2e-06 M.

In the case of `Cc1c(-c2c(-c3ccc(F)cc3)oc3ncnc(O[C@H](Cc4ccccc4OCc4ccnn4C(C)(C)C)C(=O)O)c23)ccc(OCCN(C)C)c1Cl` [Example 6, (2R)-3-{2-[(1-tert-butyl-1H-pyrazol-5-yl)methoxy]phenyl}-2-{[5-{3-chloro-4-[2-(dimethylamino)ethoxy]-2-methylphenyl}-6-(4-fluorophenyl)furo[2,3-d]pyrimidin-4-yl]oxy}propanoic acid], the 50% inhibitory concentration (IC50) was 8.9e-09 M.

For the molecule `Cn1cc(-c2cccc3ccccc23)c2c(N[C@H](Cc3ccccc3)C(=O)O)ncnc21` [Example 10, N-[7-methyl-5-(naphthalen-1-yl)-7H-pyrrolo[2,3-d]pyrimidin-4-yl]-D-phenylalanine], the IC50 is 1.8e-05 M.

`O=C(O)[C@@H](Cc1ccccc1)Nc1ncnc2[nH]cc(-c3cccc4ccccc34)c12` [Example 11, N-[5-(naphthalen-1-yl)-7H-pyrrolo[2,3-d]pyrimidin-4-yl]-D-phenylalanine]: the IC50 was 3.4e-05 M.

On to `CCc1c(-c2cccc(Cl)c2C)c2c(NC(Cc3ccccc3)C(=O)O)ncnc2n1C` [Example 21, N-[(5Sa)-5-(3-chloro-2-methylphenyl)-6-ethyl-7-methyl-7H-pyrrolo[2,3-d]pyrimidin-4-yl]-D-phenylalanine], for which the IC50 came to 8.7e-06 M.

On to `CCc1c(-c2cccc(Cl)c2C)c2c(NC(Cc3ccccc3)C(=O)O)ncnc2n1CC1CC1` [Example 23, N-[(5Sa)-5-(3-chloro-2-methylphenyl)-7-(cyclopropylmethyl)-6-ethyl-7H-pyrrolo[2,3-d]pyrimidin-4-yl]-D-phenylalanine], for which the IC50 was 6.8e-06 M.

With `CCc1c(-c2cccc(Cl)c2C)c2c(NC(Cc3ccccc3)C(=O)O)ncnc2n1CC(F)(F)F` [Example 29, N-[(5Sa)-5-(3-chloro-2-methylphenyl)-6-ethyl-7-(2,2,2-trifluoroethyl)-7H-pyrrolo[2,3-d]pyrimidin-4-yl]-D-phenylalanine], the IC50 amounted to 8.5e-06 M.

Take `CCc1c(-c2ccc(OCCN3CCN(C)CC3)c(Cl)c2C)c2c(OC(Cc3ccccc3)C(=O)O)ncnc2n1Cc1ccccc1` [Example 40, (2R)-2-[(7-benzyl-(5Sa)-5-{3-chloro-2-methyl-4-[2-(4-methylpiperazin-1-yl)ethoxy]phenyl}-6-ethyl-7H-pyrrolo[2,3-d]pyrimidin-4-yl)oxy]-3-phenylpropanoic acid]: the IC50 was found to be 8.6e-07 M.

Consider `C=CCn1c(Br)c(-c2cccc(Cl)c2C)c2c(NC(Cc3ccccc3)C(=O)O)ncnc21` [Example 44, N-[6-bromo-(5Sa)-5-(3-chloro-2-methylphenyl)-7-(prop-2-en-1-yl)-7H-pyrrolo[2,3-d]pyrimidin-4-yl]-D-phenylalanine], for which the IC50 stood at 2.5e-06 M.

Consider `Cc1c(-c2cn(Cc3ccccc3)c3ncnc(O[C@H](Cc4ccccc4)C(=O)O)c23)ccc(OCCN2CCN(C)CC2)c1Cl` [Example 45, (2R)-2-[(7-benzyl-5-{3-chloro-2-methyl-4-[2-(4-methylpiperazin-1-yl)ethoxy]phenyl}-7H-pyrrolo[2,3-d]pyrimidin-4-yl)oxy]-3-phenylpropanoic acid], for which the IC50 was determined as 1.8e-06 M.

With `CCc1sc2cccc(OC(Cc3ccccc3)C(=O)O)c2c1-c1ccc(O)c(Cl)c1C` [Example 49, (2R)-2-{[(3Sa)-3-(3-chloro-4-hydroxy-2-methylphenyl)-2-ethyl-1-benzothiophen-4-yl]oxy}-3-phenylpropanoic acid], the IC50 is 3.9e-08 M.

As to `CCc1sc2cccc(CC(Cc3ccccc3)C(=O)O)c2c1-c1ccc(O)c(Cl)c1C` (centres unmarked) [Example 54, 2-benzyl-3-[3-(3-chloro-4-hydroxy-2-methylphenyl)-2-ethyl-1-benzothiophen-4-yl]propanoic acid], the IC50 was determined as 1.2e-07 M.

For `COc1ccccc1CC(Oc1cccc2cc(-c3ccc(F)cc3)n(-c3ccc(OCCN4CCN(C)CC4)c(Cl)c3C)c12)C(=O)O` (centres unmarked) [Example 56], the half-inhibitory concentration (IC50) was determined as 4.7e-08 M.

Staying with this test, now noted: value after '/'; presumably the other FP method (Method 1 / Method 2); read-out: IC50 (M) Mcl-1 FP, second value of the cell.
Regarding `CCc1c(-c2ccc(OCCN3CCN(C)CC3)c(Cl)c2C)c2c(OC(Cc3ccccc3)C(=O)O)ncnc2n1Cc1ccccc1` [Example 40, (2R)-2-[(7-benzyl-(5Sa)-5-{3-chloro-2-methyl-4-[2-(4-methylpiperazin-1-yl)ethoxy]phenyl}-6-ethyl-7H-pyrrolo[2,3-d]pyrimidin-4-yl)oxy]-3-phenylpropanoic acid], the IC50 turned out to be 3.3e-08 M.
